Patent US9381210B2 (Wisconsin Alumni Research Foundation, priority 2013, dated 2016)

What was measured:
CML sCD34+ cells [1] = test: Hematopoietic colony-forming assay; assay type: cell-based, human
Description: CD43^+ hematopoietic cells were collected from differentiated iPSC cultures using MACS and labeled with CD235a/CD41a FITC, CD45 APC and CD38 PE (BD Pharmingen). Lin^−CD45^+CD38^+ and lin^−CD45^+CD38^− subpopulations were obtained by fluorescence-activated cell sorter (FACSAria) (Vodyanik et al., 2006). Bone marrow mononuclear cells from CML patients in the chronic phase were purchased commercially (AllCells or Applied StemCells), or obtained from the patients at the University of Wisconsin Hospital and Clinics (Madison, Wis.) with approval from the University of Wisconsin Institutional Review Board. Donors had previously signed an Institutional Review Board-approved consent. Bone marrow cells from healthy donors were obtained from Cincinnati Children's Hospital Medical Center (CCHMC). Mononuclear cells were labeled with the lineage-specific markers CD2, CD3, CD14, CD15, CD16, CD19, CD20, CD24, CD41a, CD56, CD66b, and Glycophorin A (FITC-conjugated antibodies), CD34 APC (BD Pharmingen) and DAPI to exclude dead cells. Live lin^−CD34^+ cells were isolated using FACSAria (BD).
Hematopoietic clonogenic assays were performed using serum-containing StemMACS semisolid clonogenic medium (Miltenyi Biotec, CA). Colonies were scored after fourteen to 21 days of incubation.

sCD34+ cells = test: Cell proliferation assay; assay type: cell-based, human; details: serum-free cultures without cytokines, OLFM4 300 ng/ml
Method: Total lin^−CD34^+, lin^−CD34^+CD38^− or lin^−CD34^+CD38^+ were plated in triplicate in 96-well plate at 10^3 cells/well. […] When specified, the 300 ng/ml OLFM4 (Acro Biosystem) or the following growth factors were added: 10 ng/ml IL3, 100 ng/ml SCF, 100 ng/ml Flt3L, 100 ng/ml IL6 and 200 ng/ml GM-CSF. Viable cell yields were determined by counting trypan blue excluding viable cells using a hemocytometer.

[2] = tested on: lin-CD34+ cells from CML bone marrow; test: Xenograft of siRNA-treated CML lin-CD34+ cells; assay type: in vivo, Nod scid gamma (NSG) mice; details: four mice, 16 weeks; two out of four control siRNA animals engrafted
Method: Sorted lin^−CD34^+ cells from CML bone marrow were transduced with either AllStars Negative control or OLFM4 siRNA for 24 hours. Cells were then washed and transplanted into Nod scid gamma (NSG) mice at 5-10×10^3 cells. Four mice were injected with cells treated with control siRNA and four mice were injected with OLFM4 siRNA. The mice were then analyzed at 16 weeks using flow cytometry for live human CD45^+ cells in bone marrow, liver, spleen, and peripheral blood.
The cultured cells were labeled with human CD45, mouse CD45 and DAPI and sorted for live human CD45^+ mouse CD45^− cells. The sorted cells were then plated in methyl cellulose media for hematopoietic progenitor assay and RNA extracted for PCR.

CML iCD34+ cells = test: Adhesion assay to fibronectin; assay type: cell-based, human; details: 5 μM imatinib, 24 hours
OLFM4 [3] = test: OLFM4 expression by QPCR in CML iCD34+ cells; assay type: cell-based, human; details: CML iCD34+ cells treated with imatinib
Method: iPSCs-derived lin^−CD34^+CD45^+ cells and somatic CML bone marrow lin^−CD34^+ were transfected with 100 nM of either siOLFM4 or scrambled (AllStars Neg. siRNA AF 488) using HiPerfect transfection reagent according to the manufacturer's protocol (all from Qiagen). The transfection efficiency was 50-60% as evaluated by using control ALLStars Neg. siRNA AF488. As determined by QPCR performed 24 hours after transfection, the silencing efficiency was 70-75% (FIG. 9D).
RNA was isolated from the cell subpopulations using PureLink RNA mini kit (Life Technologies). cDNA synthesis was carried out using Advantage RT-for-PCR kit (Clontech). Quantitative real-time PCR analysis was performed using Gand PlatinumSYBR Green qPCR SuperMix-UDG kit (Life Technologies) and self-designed specific primers for BCR-ABL (forward […] (SEQ ID NO:1); reverse […] (SEQ ID NO:2)), OLFM4 (forward […] (SEQ ID NO:3); reverse […] (SEQ ID NO:4)) and GAPDH (forward […] (SEQ ID NO:5); reverse […] (SEQ ID NO:6)).
The reactions were run on a Mastercyclerep Realplex™ thermal cycler (Eppendorf) and expression levels were calculated by minimal cycle threshold values (Ct) normalized to the reference expression of GAPDH in each sample (Pfaffl, 2001). When specified, K562 was used as a reference. All QPCR products were analyzed on 1.2% agarose gels to confirm the specificity of detection.

CML sCD34+ cells [4] = test: Long-term culture initiating cell assay (LTC-IC); assay type: cell-based, human; details: imatinib
Method: Sorted iPSC-derived lin^−CD34^+CD45^+ cells were plated in a six-well plate at 10^4 cells/well containing 5-7 day-old cultures of murine 1×10^5 M2-10B4 and OP9 stromal cells (1:1 ratio mix) in LTC-IC medium consisting of SFM supplemented with 10 μM hydrocortisone, 50 ng/ml SCF, 5 ng/ml IL3, and 50 ng/ml IL6. Cultures were maintained at 37° C. in a humidified atmosphere with 5% CO2, and fed at weekly intervals. After five weeks, cells were harvested and analyzed for CFC potential as described above. LTC-IC assay for somatic lin^−CD34^+CD45^+ cells was performed using M2-10B4 cells exactly as described in the Stem Cell Technologies protocol to be found online at stemcell.com/en/Technical-Resources/db5a9/28412_Itc_ic-H.aspx.

iCML CD34+ cells = details: CFSE cultures, 5 μM imatinib, four days, annexin V
Method: Differentiated cells were labeled with 1 μM carboxy-fluorescein diacetate succinimidyl diester (CFSE; Molecular Probes, Eugene, Oreg.) as previously described (Copland et al., 2006; Holtz et al., 2002). These cells were then incubated overnight in CSSM medium supplemented with growth factors to allow excess unbound dye to leak out of the cells. Cells cultured in the presence of 10 μg/ml mitomycin C (Sigma Aldrich) were used to establish the CFSEmax (undivided cell population). The next day, CFSE^bright cells were sorted by FACArias to exclude non-labeled and CFSE^dim populations. […] At the end of the culture period, cells were stained with CD34-APC and 7AAD for flow cytometry analysis. The percentage of cells in each generation was determined using FlowJo software (Tree Star, Ashland, Oreg.), with the position of the parent generation set on the basis of the fluorescence profile of undivided cells.

OLFM4 [5] = test: OLFM4 expression by RT-PCR/QPCR in sCD34+ cells; assay type: cell-based, human; details: sCD34+ cells treated with G-CSF (10 ng/ml, 24 hours)

## OLFM4: OLFM4 protein (Acro Biosystem) added to medium at 300 ng/ml; secreted glycoprotein
CML sCD34+ cells [1]; CML sCD34+ cells, OLFM4 protein 300 ng/ml
  reversal of the knockdown effect on CFCs by OLFM4 pretreatment: can be reversed
sCD34+ cells
  proliferation of sCD34+ cells: potentiates expansion
sCD34+ cells; listed as OLFM4 protein
  proliferation of sCD34+ cells: enhanced proliferation
[2]
  animals showing engraftment (live human CD45+ cells): none

## Cc1ccc(NC(=O)c2ccc(CN3CCN(C)CC3)cc2)cc1Nc1nccc(-c2cccnc2)n1 [imatinib, 4-[(4-methylpiperazin-1-yl)methyl]-N-(4-methyl-3-{[4-(pyridin-3-yl)pyrimidin-2-yl]amino}phenyl)benzamide]
CML sCD34+ cells [1]; parental lin-CD34+ BM cells of the CML patient, 5 μM imatinib, 24 hours pretreatment
  response of parental bone marrow cells to imatinib (myeloid CFC potential): sensitivity
CML iCD34+ cells
  adhesion to fibronectin: partially restored
OLFM4 [3]
  OLFM4 expression (QPCR): augmentation of OLFM4 expression
CML sCD34+ cells [4]
  LTC-ICs: little effect
iCML CD34+ cells
  apoptosis in more mature iCD34dim and iCD34- cells: substantial increase in apoptosis
  apoptosis in most primitive iCD34bright cells: resistant to imatinib-induced apoptosis

B1: G-CSF: cytokine used at 10 ng/ml to induce OLFM4 expression in sCD34+ cells (protein, UniProt P09919 31-207, looked up)
Granulocyte …: TPLGPASSLPQSFLLKCLEQVRKIQGDGAALQEKLVSECATYKLCHPEELVLLGHSLGIPWAPLSSCPSQALQLAGCLSQLHSGLFLYQGLLQALEGISPELGPTLDTLQLDVADFATTIWQQMEELGMAPALQPTQGAMPAFASAFQRRAGGVLVASHLQSFLEVSYRVLRHLAQP
OLFM4 [5]
  OLFM4 expression: rapidly induced
